In US11230711B2, “Inhibition of LET7I as a means to enhance the protective effect of progesterone against stroke” (UNIVERSITY OF NORTH TEXAS HEALTH SCIENCE CENTER, priority 2017, dated 2022):

What was measured:
Format in all cases: in vivo, mouse
BDNF = experiment: pro- and mature BDNF protein in the penumbra after MCAo (Western blot); conditions: MCAo mice; 14 days post stroke, compared to sham; FIG. 11D
Source text: (§1) (FIG. 11A) Representative immunoblots probed for Pgrmc1, pro- and mature-BDNF. (FIG. 11B) Quantitation graph of relative Pgrmc1 protein ratio to Gapdh (n=4-5 per group). (FIG. 11C) Quantitation graph of relative pro-BDNF protein ratio to Gapdh (n=4-5 per group). (FIG. 11D) Quantitation graph of relative mature BDNF protein ratio to Gapdh (n=4-5 per group). (FIG. 11E) Quantitation graph of relative let-7i expression in ischemic brain (n=4-5 per group). n.s: not significant, ** P<0.01 and *P<0.05 compared to sham, and #P<0.05 compared to P4+scrambled. Data are presented as the mean±SEM.
(§2) Primary cortical astrocytes and mouse brains were lysed with RIPA lysis buffer containing protease and phosphatase inhibitors, as previously described (44). After homogenization, samples were centrifuged at 45,000 rpm for 30 min at 4° C. and supernatants were collected. Total protein concentrations were determined using the Bio-Rad DC protein assay kit (Bio-Rad Laboratories). Cell lysates were separated by SDS-PAGE and transferred onto polyvinylidene fluoride membrane (Bio-Rad Laboratories) by electroblotting. Membranes were blocked with 5% skim milk in tris-buffered saline containing 0.2% Tween 20 (TBS-T) for 1 h at room temperature, followed by overnight incubations of primary antibodies at 4° C. […]

C57BL/6J mice = experiment: Wire suspension (wire hanging) test of grip strength / motor function after MCAo; conditions: Example 2, FIG. 13
Experimental: Animals will be trained 2 days before MCAo procedure and will be tested on day 3, 7, and 14 post stroke. Animals will be allow to suspend their bodies on a single wire stretched between 2 posts 50 cm above the ground. Between the posts, a soft pillow will be placed to avoid injury in case of a fall. Training will be achieved simply with several rounds of habituation and trials. In the actual testing phase, mice will be tested 3 times and average performance is recorded as final values.
All mice were first ovariectomized to deplete endogenous ovarian hormone levels. Two weeks after ovariectomy (OVX), P4 pellets were subcutaneously implanted into these animals to replenish their progesterone levels. In parallel, different groups received cholesterol pellet implantations to serve as vehicle control. One week after pellet implantation, stroke was induced in these mice using middle cerebral artery occlusion (MCAo) procedure. In parallel, different groups received sham operation (non-stroke). […]
wire suspension test: In ordered to assess motor function recovery with different treatments, wire suspension test, a test of grip strength and endurance, was used, as described elsewhere (58). […] The latency for animals to fall off the wire was recorded. […] Performances of these mice was evaluated at day 3, 7 and 14 post stroke.

Pgrmc1 = Pgrmc1 protein in the penumbra after MCAo (Western blot); conditions: MCAo mice; day 7 and day 14; FIG. 11B
Source text: as §1, §2

CC(=O)[C@H]1CC[C@H]2[C@@H]3CCC4=CC(=O)CC[C@]4(C)[C@H]3CC[C@]12C [P4, progesterone]
mature BDNF level in the penumbra (BDNF): able to maintain the same level | motor function recovery (wire suspension test) (C57BL/6J mice; day 7): partial recovery | motor function recovery (wire suspension test) (C57BL/6J mice; day 14): partial recovery | Pgrmc1 protein level in the penumbra (Pgrmc1): did not restore
